{"source": "patent US9486447B2", "about": "“Compositions and methods for controlling neuronal excitation” (The General Hospital Corporation, priority 2011, dated 2016)", "key": {"zebrafish embryos": {"system": "zebrafish embryos", "assay": "Zebrafish behavioral assay (light-dependent motor excitation, excitation score)", "format": "in vivo", "description": "To identify small molecules for the optical control of endogenous channels, a screen was conducted for compounds that could drive light-dependent motor behaviors in wild-type zebrafish. Zebrafish embryos are particularly well suited for phenotype based chemical screens^28,29. They are blind for the first 3 days of development and other than a one-time motor response to the first light exposure in dark-adapted animals (the photomotor response, PMR), zebrafish embryos are unresponsive to light^31,30 (FIG. 1A). A library of 10,000 structurally diverse synthetic small molecules was screened for compounds that render zebrafish embryos responsive to light. Behavioral responses were measured for each well in comparison to a set of 2,500 DMSO treated controls. This screen identified a single compound, optovin, that increased motor activity greater than 40 standard deviations above the control mean (FIGS. 1A-1C).\nA large number of fertilized eggs (up to 5,000 embryos per day) were collected from group mating of Ekkwill or TuAB zebrafish. Embryos were raised in HEPES (10 mM) buffered E3 media in a dark incubator at 28° C. until […]. Groups of ˜8 embryos (28 hpf) were distributed into the wells of flat bottom black-walled 96 well plates filled with E3 media (360 μl). Embryos were then incubated in a dark incubator 25° C. for chemical treatment and subsequent experiments.\nThe Tim Tec ACTIPROBEβ library contains 10,000 compounds dissolved in DMSO at a stock concentration of 1 mg/ml (˜3 mM). The Tim Tec library was screened at a 1:300 dilution in E3 buffer for a final concentration of ˜10 μM. Negative controls were treated with an equal volume of DMSO. Stock solutions were added directly to zebrafish in the wells of a 96 well plate, mixed, and allowed to incubate for 2-10 hours in the dark prior to behavioral evaluation in the PMR assay. The Tim Tec library (10,000 compounds) was purchased from the Tim Tec corporation (Newark, Del.). The Neurotransmitter Library (700 compounds; cat #2810) was purchased from Biomol International. Reordered hit compounds were dissolved in DMSO and added to wells as described above.\nAnimals were exposed to a two pulse stimulus train with a 10 s inter-stimulus interval. Exposure to the first pulse was used to trigger the photomotor response, which has a refractory phase of approximately 10 minutes. […] In a typical assay, 1000 frames of digital video were recorded at 33 fps using a Hamamatsu ORCA-ER camera mounted on a Nikon TE200 microscope with a 1× objective. Instrument control and data measurement were performed using custom scripts for Metamorph Software (Molecular Devices). Each video was saved for review. Light stimuli were generated with a 300-watt xenon bulb housed in a Sutter Lambda LS illuminator and delivered to the well 10 s and 20 s after the start of each video. A cold mirror (reflectance between 300 nm and 700 nm) on the Sutter illuminator was used to block wavelengths outside of this range. Light intensity was measured using a PM100D power meter attached to a S120VC photodiode power sensor (Thorlabs). Where indicated, filters were used to restrict the excitation light to the indicated wavelengths.\nTo analyze digital video recordings, custom software scripts were used to automatically draw six evenly spaced line segments across each well such that each embryo is likely to be crossed by one of the lines. The software then tracks the average intensity of the pixels for each segment over time. As the embryos move, the light intensity at some of the pixels changes. The motion index was calculated by taking the total absolute difference in pixel intensity between frames. This motion index correlates with the overall amount of motion in the well, both in terms of contraction frequency and number of animals in motion. Behavioral features are quantified by ‘excitation scores’ that are calculated by taking the 75th percentile of the motion index for 3-5 s following the light stimulus. […]"}, "[1]": {"system": "larvae and adult zebrafish", "assay": "Long-term toxicity testing in zebrafish", "format": "in vivo", "description": "Optovin is a rhodanine-containing small molecule with no previously annotated biological activity (FIG. 1D). […] Motor behavior in optovin-treated animals is elicited by radiation stimulus intensitites greater than 1.6 μW/mm^2 (FIG. 1G). […] To determine the long-term effects of optovin exposure on development, behavior and survival, the development, behavior and survival of larvae and adult zebrafish exposed to optovin (10 μM) for 96 hours were analyzed. […] Thus, optovin is a novel behavior-modifying compound that causes rapid and reversible motor excitation in response to violet light stimuli.\nTo determine the long-term effects of optovin exposure on development, behavior and survival, the development, behavior and survival of larvae (n=150) and adult zebrafish (n=2) exposed to 10 μM optovin for 96 hours was analyzed."}, "[2]": {"system": "dorsal root ganglia (DRG) sensory neurons", "assay": "Calcium imaging of DRG sensory neurons", "format": "cell-based, mouse", "description": "To determine if optovin acts on sensory neurons, the activity of treated and untreated dorsal root ganglia (DRG) sensory neurons isolated from wild type mice were compared. […] TRPA1 channels play important roles in detecting chemical, thermal, and mechanical stimuli in a variety of organisms^34,35.\nC57Bl/6 male mice (3-4 weeks old) were decapitated and DRG were dissected into 4° C. Hank's Balanced Salt Solution (HBSS; Gibco), then neurons were dissociated using collagenase (1 mg/mL; Worthington) and dispase (5 mg/mL; Gibco) dissolved in HBSS. Neurons were plated in Neurobasal-A medium (Invitrogen), supplemented with B-27 Supplement (Gibco), L-glutamine (Gibco), and penicillin-streptomycin (Gibco). The neurons were plated onto coverslips coated with 0.1 mg/mL poly-D-lysine (Sigma) and 5 μg/mL laminin (Sigma). After 24 h, neurons were washed with assay buffer (HBSS, supplemented with 9 mM HEPES, 11 mM D-glucose, 0.1% fatty-acid free BSA, pH 7.3) and incubated for 1 h with 2 μM Fura2-AM (Invitrogen) with 0.2% pluronic (Invitrogen) in assay buffer in the dark at room temperature. The neurons were then washed with assay buffer and allowed to equilibrate at room temperature for 30 min prior to imaging. After a 120 s baseline perfusion of assay buffer containing 3.3% DMSO, 100 μM optovin dissolved in the DMSO-assay buffer solution, or the DMSO-assay buffer solution alone as a control, was perfused onto the neurons for a period of 1 min. Fura-2 is activated with UV-light, and the process of imaging Fura-2 was enough to activate the optovin. […] Following this one-minute period, cells were perfused with DMSO-assay buffer to remove the agonist, which was followed by addition of 100 μM mustard oil (in DMSO-assay buffer) to determine the total number of TrpA1-expressing neurons present. Images were acquired on a Nikon Eclipse Ti microscope (Nikon, Melville, N.Y.)."}}}
{"smiles": "Cc1cc(/C=C2/SC(=S)NC2=O)c(C)n1-c1cccnc1", "note": "[optovin]", "values": [{"measurement": "light-dependent motor excitation in vivo", "setting": "zebrafish embryos; 10 μM, n=3, FIG. 4H", "value": "cause light-dependent motor excitation"}, {"measurement": "behavioral excitation (activity of optovin analogs)", "setting": "zebrafish embryos; 10 μM, n=5, FIG. 2A", "value": "active"}, {"measurement": "response to stimulus wavelengths", "setting": "zebrafish embryos; 387, 485, 560 nm or longer", "value": "respond to 387 nm (violet) stimuli, but not to 485 nm (blue), 560 nm (green) or longer wavelengths"}, {"measurement": "EC50", "setting": "zebrafish embryos; Danio rerio, dose response, n=5, read-out: EC50 of light-induced motor excitation (behavioral excitation score)", "value": 2, "unit": "µM"}, {"measurement": "behavioral excitation by singlet oxygen generating photosensitizers", "setting": "zebrafish embryos; FIG. 4F", "value": "only optovin causes behavioral excitation"}, {"measurement": "response to 387 nm light stimulus", "setting": "zebrafish embryos; TrpA1b homozygous mutant animals", "value": "failed to respond"}, {"measurement": "latency of movement", "setting": "zebrafish embryos; depending on developmental stage", "value": "100 to 300", "unit": "ms"}, {"measurement": "relation of stimulus and response duration", "setting": "zebrafish embryos; radiation stimuli lasting between 5 and 20 seconds", "value": "stimulus and response duration are proportional"}, {"measurement": "increase in motor activity above the control mean (Z-score)", "setting": "zebrafish embryos; screen at ~10 μM, light stimulus, vs DMSO treated controls", "value": "greater than 40 standard deviations"}, {"measurement": "light response of spinalized preparations", "setting": "zebrafish embryos; trunks transected posterior to the hindbrain", "value": "respond to light"}, {"measurement": "response to 387 nm light stimulus", "setting": "zebrafish embryos; wild-type, TrpA1a heterozygous and TrpA1a homozygous mutant animals", "value": "respond to the 387 nm light stimulus with the typical prolonged motor excitation"}, {"measurement": "Off rate (time between end of light stimulus and return to rest)", "setting": "zebrafish embryos; zebrafish, in vivo", "value": 2, "unit": "s"}, {"measurement": "On rate (latency between start of light stimulus and start of embryo movement)", "setting": "zebrafish embryos; zebrafish, in vivo", "value": -150, "unit": "ms"}, {"measurement": "lowest effective dose", "setting": "zebrafish embryos; zebrafish, in vivo", "value": 3, "unit": "µM"}, {"measurement": "radiation stimulus intensity eliciting motor behavior", "setting": "zebrafish embryos; zebrafish, in vivo", "value": "greater than 1.6 μW/mm^2"}, {"measurement": "response to repeated light pulses", "setting": "zebrafish embryos; zebrafish, in vivo", "value": "multiple responses can be triggered with repeated light pulses"}, {"measurement": "differences in appearance, touch response, heart rate, fin movements, morphology or percentage survival vs untreated", "setting": "[1]; 10 μM for 96 hours, larvae and adult zebrafish", "value": "No differences were identified"}, {"measurement": "survival rates", "setting": "[1]; 10 μM, larval or adult zebrafish", "value": "does not affect survival rates"}, {"measurement": "signs of toxicity", "setting": "[1]; after 48 hours of treatment", "value": "No signs of toxicity were observed"}, {"measurement": "activation of DRG neurons with light", "setting": "[2]; 100 μM optovin, illuminated (Fura-2 imaging)", "value": "strongly activated"}, {"measurement": "activation of DRG neurons in the dark", "setting": "[2]; optovin treatment in the dark", "value": "did not occur"}]}
